Experimental findings from patent publication US4687762A, “Water soluble drug complex and method for production of same” (Green Cross Corporation, priority 1984, dated 1987) are described below.

Data set [1] can be described thus: Solubility in distilled water for injection. In kind it is physicochemical. As to conditions: for solubility: component drug, distilled water for injection, 20° C.
Data set [2] can be described thus: Acute toxicity (LD50) in mice. As to conditions: mouse, in vivo, drug. The text has this:
The intravenous and oral acute toxicity values (LD50) in mice of each drug-phospholipid complex of this invention were compared with those of the corresponding component drug.

In data set [3] the test system is L-1210 mouse ascites tumor cells. The data set is described as follows: Antitumor effect, life prolongation in L-1210 inoculated mice (Test 1). In kind it is in vivo. As to conditions: intravenous, 5 days, BDF1 mice. Here is the method: (§1) The pharmacologic effect of the drug-phospholipid complex according to this invention administered by the intravenous route was compared with that of the component drug administered in the same manner using 10 aminals. Test (1): Antitumor Effect
Ten male BDF1 mice ([…]) were inoculated with 10^6 cells of L-1210 mouse ascites tumor cells. After 24 hours from the inoculation Sapdicomycin as a drug was administered to the animals for continuous 5 days, and the number of days in which the test animals were dead. The life prolongation ratio was calculated according to the following equation. [formula] wherein A1 represents an average survival period (day) of control group (without administration) and A2 represents that of administered group.

Details of data set [4]: species or system rat (male Wistar). The following applies: rat, in vivo, iv, 1440 min. The text has this:
The organ affinity of the drug-phospholipid complex according to this invention was compared with that of the component drug. […] Twenty-four hours after the administration, the degree of retention of the drug in each organ was estimated by determining the radio-activity level.

A short description of data set [5]: Oral route absorption in rats. The arrangement: species or system rat (male Wistar). The following applies: rat, in vivo. The text has this: The oral route absorption of the drug-phospholipid complex according to this invention administered was compared with that of the component drug similarly administered. […] Twenty-four hours after the administration, the degree of retention of the drug in each organ was estimated by determining the radio-activity level.

A short description of data set [6]: Blood pressure lowering effect in dogs (Test 2). The data set is classed as in vivo, dog (male mongrel dogs). As to conditions: intravenous. Here is the method:
as §1
Test (2): Blood Pressure Lowering Effect
Ten normal male mongrel dogs were intravenously administered with prostaglandin E1 and the blood pressure of each animal was measured using a catheter inserted into the carotid artery of the animal.
The blood pressure lowing ratio was calculated according to the following equation. [formula] wherein P1 represents the blood pressure after the administration and P2 represents that before the administration.

Where [7] appears, read: intravenous, read-out: Acute Toxicity (LD50), Intravenous Administration, Drug.
The mark [8] stands for this setting: oral, read-out: Acute Toxicity (LD50), Oral Administration, Drug.

In brackets after ≈: the same amount, converted by molar mass. Read-outs that look alike come from different tables or passages of the source.

The term solubility denotes the dissolved amount per volume that the medium holds. Read a low solubility as little dissolved substance. `O=c1[nH]cc(F)c(=O)[nH]1` [5-Fluorouracil]: the solubility in data set [1] turned out to be 13000 µg/mL (≈ 99900 µM). Moreover, the LD50 in data set [2] (setting [7]) came to 173 mg/kg; in data set [2] (setting [8]), 249 mg/kg.

On to `CC(C(=O)O)c1ccc(-c2ccccc2)c(F)c1` (centres unmarked) [Flurbiprofen, flurbiprofen], for which the solubility in data set [1] was 150 µg/mL (≈ 614 µM).

As for `COc1ccc2c(c1)c(CC(=O)OCC(=O)O)c(C)n2C(=O)c1ccc(Cl)cc1` [Acemetacin, acemetacin], in data set [1], the concentration in solution (solubility) was 400 µg/mL (≈ 962 µM).

The compound `COc1cccc2c1C(=O)c1c(O)c3c(c(O)c1C2=O)C[C@@](O)(C(=O)CO)C[C@@H]3O[C@H]1C[C@H](N)[C@H](O)[C@H](C)O1` [Adriamycin, adriamycin] returned a solubility in data set [1] of 7000 µg/mL (≈ 12900 µM). Moreover, the values for the LD50 in data set [2] (setting [7]) and in data set [2] (setting [8]) were 9.1 mg/kg and 737 mg/kg, respectively.

`COc1cccc2c1C(=O)c1c(O)c3c(c(O)c1C2=O)C[C@@](O)(C(C)=O)C[C@@H]3O[C@H]1C[C@H](N)[C@H](O)[C@H](C)O1` [Daunomycin, daunomycin] returned a solubility in data set [1] of 20000 µg/mL (≈ 37900 µM). The LD50 came to 23.5 mg/kg in data set [2] (setting [7]) and 271 mg/kg in data set [2] (setting [8]).

`C[C@@H]1C[C@H]2[C@@H]3CCC4=CC(=O)C=C[C@]4(C)[C@@]3(F)[C@@H](O)C[C@]2(C)[C@@]1(O)C(=O)CO` [Dexamethasone, dexamethasone]: the solubility in data set [1] was 50 µg/mL (≈ 127 µM).

Consider spadicomycin, for which the “Solubility, Component Drug” value in data set [1] (water) was found to be 55000 µg/mL. Besides, the “Antitumor effect (life prolongation ratio), Drug” value in data set [3] (2.5 mg/kg) turned out to be 19%. The “Antitumor effect (life prolongation ratio), Drug” value in data set [3] (5.0 mg/kg) is recorded as 25%. Also, the “Antitumor effect (life prolongation ratio), Drug” value in data set [3] (10.0 mg/kg) is on record as 50%. For the same compound, in data set [4], the “Retention in kidney, Drug” value is 129 dpm per Gram Organ Weight; the “Retention in liver, Drug” value was 585 dpm per Gram Organ Weight; the “Retention in tumor, Drug” value was 3800 dpm per Gram Organ Weight; the “Retention in whole blood, Drug” value is 825 dpm per Gram Organ Weight. Further, the “Absorption Rate, Drug” value in data set [5] is on record as 2.0%.

The compound `CCCCC[C@H](O)/C=C/[C@H]1[C@H](O)CC(=O)[C@@H]1CCCCCCC(=O)O` [Prostaglandin E1, prostaglandin E1] had a solubility in data set [1] of 70 µg/mL (≈ 197 µM). Besides, the LD50 in data set [2] (setting [8]) is 7570 mg/kg. In addition, the results for the “Blood pressure lowering ratio, Drug” value in data set [6] (0.25 mg/kg), in data set [6] (0.5 mg/kg) and in data set [6] (1.0 mg/kg) were 4.8%, 7.7% and 10.5%, respectively.
